Measured values taken from PubChem BioAssay AID2060325 (Molecular Pharmacology Branch, DTP, NCI, 2025).

Tested on: SK-OV-3 multi-cell spheroids, viability
Assay: Anticancer human tumor SK-OV-3 cell line growth inhibition [IpAb];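 for viability, T/C: viability read after seven days of drug exposure; percent of DMSO vehicle control luminescence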
Settings: for IC50: curve of first compound; for viability, T/C: stronger effect = lower value
Description: Combinatorial screen of targeted agents with ipatasertib and abemaciclib in multi-cell type tumor spheroids
A high-throughput screen of multi-cell type tumor spheroids was designed to identify active combinations of targeted small molecules and ipatasertib or abemaciclib. Complex spheroids include a stromal component modeled by human endothelial cells (HUVEC) and fibroblasts modeled by human mesenchymal stem cells (MSCs). The concentration ranges selected for each drug and investigational agent were based upon clinically achievable concentrations if the clinical Cmax of the agent was known.
Compounds. The drugs and investigational agents: ipatasertib (NSC767898), abemaciclib(NSC768073), selumetinib (NSC741078), trametinib (758246), adavosertib (NSC754352), everolimus (NSC733504), sapanisertib (NSC764658), vemurafenib (NSC761431), venetoclax (NSC766270), copanlisib (NSC809693), apelisib (NSC765974), palbociblib (NSC758247), vemurafenib (NSC761431), dabrafenib (NSC764134), ravoxertinib (NSC781343), BMS-387032 (NSC767048), sotorasib (NSC818433), talazoparib (NSC767125) and afursertib (NSC778305), were obtained from the National Cancer Institute (NCI) Developmental Therapeutics Program Chemical Repository. The FDA-approved anticancer drug set is available from the NCI Developmental Therapeutics Program. […] The stock solutions were prepared in dimethyl sulfoxide (DMSO, Sigma-Aldrich, St. Louis, MO, cat. D2650) at 800-fold the tested concentration and stored at -70 degrees C prior to their use. All drugs and investigational agents were tested over a range starting from a high concentration at or near the clinical Cmax and decreasing in half-log increments. If the clinical Cmax for an agent had not been determined, the highest concentration tested was 10 microM.
NCI60 Cell Culture. NCI60 cell lines were obtained from the NCI Developmental Therapeutics Program Tumor Repository. For each lot of cells, the Repository performed Applied Biosystems AmpFLSTR Identifiler testing with PCR amplification to confirm consistency with the published Identifier STR profile for each cell line. Cells were kept in continuous culture for no more than 20 passages. The optimal seeding densities for each of the cell lines at each time point assessed were determined prior to performing the concentration response studies. Briefly, the NCI60 human tumor lines were grown as monolayers in RPMI 1640 medium supplemented with 10% FBS and 2 mmol/L L-glutamine.
An additional 9 lines were from the NCI60 cell line panel including MDA-MB-231 breast carcinoma, MDA-MB-468 breast carcinoma, MCF7 breast carcinoma, Hs578T breast carcinoma, MALME-3M melanoma, SK-MEL-2 melanoma, SK-OV-3 ovarian carcinoma, DU-145 prostate carcinoma, PC-3 prostate carcinoma, all cell lines along with major genetic alterations are listed on Table 2. Pooled donor human umbilical vein endothelial cells (HUVEC, Lonza, cat. CC-2519) and human mesenchymal stem cells (hMSC, Lonza, cat. PT-2501) were purchased from Lonza (Walkersville, MD).
PDMR cell lines were grown in complete medium (DC medium): Dulbecco's modified Eagle's medium (DMEM)/F12 supplemented with 5% fetal bovine serum (FBS), 2 mM L-glutamine, 100 U/mL penicillin and 100 µg/ml streptomycin, 0.4 µg/ml hydrocortisone, 10 ng/ml epidermal growth factor (EGF) recombinant human protein, 24 µg/mL adenine, and 0.1 mg/mL primocin. During culture from frozen stock vials, PDMR cells were cultured in the same medium containing 10 µM Y-27632 (see Table 3). The PDCs were cultured in complete DMEM/F12 media without 10 microM Y-27632 dihydrochloride for at least two passages prior to the screen. The pooled donor HUVEC and hMSC were cultured in endothelial cell growth medium 2 (PromoCell, Heidelberg, Germany, cat. C-22011) and mesenchymal stem cell growth medium 2 (PromoCell, cat. C-28009), respectively. For all experiments, HUVEC and hMSC were used at passages </=5.
[…]

[1] = second compound 0.1 µM, first compound 0.0316 µM
[2] = second compound 0.1 µM, first compound 0.1 µM
[3] = second compound 0.1 µM, first compound 0.316 µM
[4] = second compound 0.1 µM, first compound 1 µM
[5] = second compound 0.1 µM, first compound 3.16 µM
[6] = second compound 0.1 µM, first compound 10 µM
[7] = second compound 0.316 µM, first compound 0.0316 µM
[8] = second compound 0.316 µM, first compound 0.1 µM
[9] = second compound 0.316 µM, first compound 0.316 µM
[10] = second compound 0.316 µM, first compound 1 µM
[11] = second compound 0.316 µM, first compound 3.16 µM
[12] = second compound 0.316 µM, first compound 10 µM
[13] = second compound 1 µM, first compound 0.0316 µM
[14] = second compound 1 µM, first compound 0.1 µM
[15] = second compound 1 µM, first compound 0.316 µM
[16] = second compound 1 µM, first compound 1 µM
[17] = second compound 1 µM, first compound 3.16 µM
[18] = second compound 1 µM, first compound 10 µM
[19] = second compound 3.16 µM, first compound 0.0316 µM
[20] = second compound 3.16 µM, first compound 0.1 µM
[21] = second compound 3.16 µM, first compound 0.316 µM
[22] = second compound 3.16 µM, first compound 1 µM
[23] = second compound 3.16 µM, first compound 3.16 µM
[24] = second compound 3.16 µM, first compound 10 µM
[25] = second compound 10 µM, first compound 0.0316 µM
[26] = second compound 10 µM, first compound 0.1 µM
[27] = second compound 10 µM, first compound 0.316 µM
[28] = second compound 10 µM, first compound 1 µM
[29] = second compound 10 µM, first compound 3.16 µM
[30] = second compound 10 µM, first compound 10 µM

CCCS(=O)(=O)Nc1ccc(F)c(C(=O)c2c[nH]c3ncc(-c4ccc(Cl)cc4)cc23)c1F + CC(C)NCC(C(=O)N1CCN(c2ncnc3c2C(C)CC3O)CC1)c1ccc(Cl)cc1
IC50 (second compound 0.1 µM): 4.77 µM | IC50 (second compound 0.316 µM): < 0.0316 µM | IC50 (second compound 1 µM): < 0.0316 µM | IC50 (second compound 3.16 µM): < 0.0316 µM | IC50 (second compound 10 µM): < 0.0316 µM | viability, T/C [1]: 70.2% | viability, T/C [2]: 74.1% | viability, T/C [3]: 67.5% | viability, T/C [4]: 73.9% | viability, T/C [5]: 64.3% | viability, T/C [6]: 23.3% | viability, T/C [7]: 38.8% | viability, T/C [8]: 36.5% | viability, T/C [9]: 38.1% | viability, T/C [10]: 36.1% | viability, T/C [11]: 28.2% | viability, T/C [12]: 13.9% | viability, T/C [13]: 20.5% | viability, T/C [14]: 22.4% | viability, T/C [15]: 21.3% | viability, T/C [16]: 17.9% | viability, T/C [17]: 15.3% | viability, T/C [18]: 6.91% | viability, T/C [19]: 17.1% | viability, T/C [20]: 18.6% | viability, T/C [21]: 15.7% | viability, T/C [22]: 15.7% | viability, T/C [23]: 15.1% | viability, T/C [24]: 6.79% | viability, T/C [25]: 8.73% | viability, T/C [26]: 9.5% | viability, T/C [27]: 9.69% | viability, T/C [28]: 8.84% | viability, T/C [29]: 9.71% | viability, T/C [30]: 2.52%

CC1(C)CCC(CN2CCN(c3ccc(C(=O)NS(=O)(=O)c4ccc(NCC5CCOCC5)c([N+](=O)[O-])c4)c(Oc4cnc5[nH]ccc5c4)c3)CC2)=C(c2ccc(Cl)cc2)C1 + CC(C)NCC(C(=O)N1CCN(c2ncnc3c2C(C)CC3O)CC1)c1ccc(Cl)cc1
IC50 (second compound 0.1 µM): 3.2 µM | IC50 (second compound 0.316 µM): < 0.0316 µM | IC50 (second compound 1 µM): < 0.0316 µM | IC50 (second compound 3.16 µM): < 0.0316 µM | IC50 (second compound 10 µM): < 0.0316 µM | viability, T/C [1]: 64.3% | viability, T/C [2]: 70.6% | viability, T/C [3]: 68% | viability, T/C [4]: 58.6% | viability, T/C [5]: 51.2% | viability, T/C [6]: 26.1% | viability, T/C [7]: 33.6% | viability, T/C [8]: 38.2% | viability, T/C [9]: 31.7% | viability, T/C [10]: 31.6% | viability, T/C [11]: 28% | viability, T/C [12]: 18.6% | viability, T/C [13]: 21.1% | viability, T/C [14]: 27.3% | viability, T/C [15]: 21.6% | viability, T/C [16]: 18.9% | viability, T/C [17]: 17% | viability, T/C [18]: 13.7% | viability, T/C [19]: 15.5% | viability, T/C [20]: 15.3% | viability, T/C [21]: 14.2% | viability, T/C [22]: 13.9% | viability, T/C [23]: 11.1% | viability, T/C [24]: 7.06% | viability, T/C [25]: 7.25% | viability, T/C [26]: 9.06% | viability, T/C [27]: 8.25% | viability, T/C [28]: 6.89% | viability, T/C [29]: 5.18% | viability, T/C [30]: 4.58%
